Source: patent US12617771B2, “Diphenylpyrazole compound, and preparation method therefor and application thereof” (NORTHWEST A&F UNIVERSITY, priority 2021, dated 2026)
Several values for one entry are separate records, joined by “and”; a condition that tells them apart may be missing. Identical values can stand only once.

What was measured:
Format in all cases: biochemical
[1] = target: PxGSTε3 (Plutella xylostella, UniProt O77409); test: Inhibition of PxGSTε3 recombinant protein; conditions: read-out: 100 μM Inhibition rate %
Procedure: (§1) Experiment: 100 μL of PBS buffer (100 mM, pH 7.2) was taken and added to a 96-well plate, 1 μg of PxGSTs recombinant protein and an appropriate concentration of the compounds PXG1-PXG29 of the present invention were added to each well, after uniformly mixing, and allowed to stand at 30° C. for 10 min. Then 100 μL of PBS buffer (100 mM, pH 7.2) containing 1 mM CDNB and 1 mM GSH was successively added to each well. Immediately after mixing, the mixture was placed in a microplate reader to measure the absorbance at a wavelength of 340 nm (A340) once every 1 min, the measurement was continued for 5 min, the light absorption values of each measuring point were recorded and the inhibition rate in vitro of the compounds PXG1-PXG29 of the present invention with different concentrations against PxGSTs recombinant protein were calculated. Each group of assays was repeated three times, and PxGSTs recombinant protein inactivated at 100° C. for 5 min was used as negative control, and GTX was used as positive control. GraphPad Prism 5 software was used for analysis and calculation of IC50. Relative inhibition was calculated using the following formula:
(§2) [formula] • wherein, A340c is the change of A340 […] the control group, an A340t is the change of A340 within 5 minutes for the experimental group.

[2] = target: Pyrausta nubilalis GSTs; test: Inhibition of total GSTs enzyme of Pyrausta nubilalis (CDNB method)
Procedure: (§3) Experiment: About 50 mg of larvae/nymphs of nine major pests such as Plutella xylostella, Mythimna separata, Pyrausta nubilalis, Chilo suppressalis, Nilaparvata lugens, Spodoptera frugiperda, Helicoverpa armigera, Carposina sasakii, Spodoptera litura were taken, grounded in a mortar pre-cooled at −80° C., and then 1 mL of 100 mM sodium phosphate buffer (1 mM EDTA, pH 7.2) was added and fully homogenized. The homogenate was transferred to a 1.5 mL centrifuge tube at 4° C., and centrifuged at 14,000 g for 30 minutes, and the supernatant was transferred to a new centrifuge tube as the GSTs total enzyme. The protein concentrations of the above total enzymes were determined using the BCA method.
(§4) 100 μL of PBS buffer (100 mM, pH 7.2) containing 1 mM GSH was taken and placed in a 96-well plate, 5 μg of insect total GSTs enzymes and an appropriate concentration of compounds PXG1-PXG29 (29 compounds) of the present invention were added to each well, after uniformly mixing, and allowed to stand at 30° C. for 10 min. Then 100 μL of PBS buffer (100 mM, pH 7.2) containing 1 mM CDNB was added to each well. Immediately after mixing, the mixture was placed in a microplate reader to measure the absorbance at a wavelength of 340 nm (A 340) once every 1 min, the measurement was carried out continuously for 5 min, the light absorption values of each measuring point were recorded and the inhibition rate in vitro of the compounds with different concentrations against insects total GSTs enzymes were calculated. Each group of assays was repeated three times, and total GSTs enzymes inactivated at 100° C. for 5 min were used as negative controls, and GTX was used as positive controls. GraphPad Prism 5 software was used for analysis and calculation of IC50. Relative inhibition was calculated using the following formula:
(§5) [formula] • wherein, A340 is the change of A340 within 5 minutes for the control group, and A340t is the change of A340 within 5 minutes for the experimental group.

[3] = system: Nilaparvata lugens GSTs; test: Inhibition of total GSTs enzyme of Nilaparvata lugens (CDNB method)
Procedure: as §3, §4, §5

[4] = target: Spodoptera litura GSTs; test: Inhibition of total GSTs enzyme of Spodoptera litura (CDNB method)
Procedure: as §3, §4, §5

[5] = target: PxGSTδ1 (Plutella xylostella, UniProt D7URW9); test: Inhibition of PxGSTδ1 recombinant protein; conditions: read-out: 100 μM Inhibition rate %
Procedure: as §1, §2

[6] = target: PxGSTσ1 (Plutella xylostella, UniProt Q6F436); test: Inhibition of PxGSTσ1 recombinant protein; conditions: read-out: 100 μM Inhibition rate %
Procedure: as §1, §2

[7] = target: Mythimna separata GSTs; test: Inhibition of total GSTs enzyme of Mythimna separata (CDNB method)
Procedure: as §3, §4, §5

[8] = system: Spodoptera frugiperda GSTs; test: Inhibition of total GSTs enzyme of Spodoptera frugiperda (CDNB method)
Procedure: as §3, §4, §5

[9] = target: Carposina sasakii GSTs; test: Inhibition of total GSTs enzyme of Carposina sasakii (CDNB method)
Procedure: as §3, §4, §5

[10] = target: PxGSTσ2 (Plutella xylostella, UniProt Q6F443); test: Inhibition of PxGSTσ2 recombinant protein; conditions: read-out: 100 μM Inhibition rate %
Procedure: as §1, §2

[11] = target: Helicoverpa armigera GSTs; test: Inhibition of total GSTs enzyme of Helicoverpa armigera (CDNB method)
Procedure: as §3, §4, §5

[12] = system: Chilo suppressalis GSTs; test: Inhibition of total GSTs enzyme of Chilo suppressalis (CDNB method)
Procedure: as §3, §4, §5

[13] = target: Plutella xylostella GSTs; test: Inhibition of total GSTs enzyme of Plutella xylostella (CDNB method)
Procedure: as §3, §4, §5

Chain of PxGSTδ1 (D7URW9 entry or part of it): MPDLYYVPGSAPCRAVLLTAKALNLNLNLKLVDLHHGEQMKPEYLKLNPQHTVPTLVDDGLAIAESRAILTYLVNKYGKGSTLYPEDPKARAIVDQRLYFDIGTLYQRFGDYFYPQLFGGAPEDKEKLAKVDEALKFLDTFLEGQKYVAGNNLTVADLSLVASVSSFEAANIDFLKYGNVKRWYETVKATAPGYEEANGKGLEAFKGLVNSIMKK
Chain of PxGSTσ1 (Q6F436 entry or part of it): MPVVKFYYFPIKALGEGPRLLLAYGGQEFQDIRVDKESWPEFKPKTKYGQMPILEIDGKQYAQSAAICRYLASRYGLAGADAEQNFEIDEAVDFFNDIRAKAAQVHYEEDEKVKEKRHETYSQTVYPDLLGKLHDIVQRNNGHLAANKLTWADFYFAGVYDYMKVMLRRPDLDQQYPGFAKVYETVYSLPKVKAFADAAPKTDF
Chain of PxGSTσ2 (Q6F443 entry or part of it): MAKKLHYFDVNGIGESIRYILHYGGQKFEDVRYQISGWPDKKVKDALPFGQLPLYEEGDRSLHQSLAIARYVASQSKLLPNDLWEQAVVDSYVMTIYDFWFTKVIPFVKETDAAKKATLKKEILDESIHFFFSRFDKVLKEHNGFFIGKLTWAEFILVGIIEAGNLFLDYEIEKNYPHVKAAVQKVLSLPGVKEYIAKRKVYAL
Chain of PxGSTε3 (O77409 entry or part of it): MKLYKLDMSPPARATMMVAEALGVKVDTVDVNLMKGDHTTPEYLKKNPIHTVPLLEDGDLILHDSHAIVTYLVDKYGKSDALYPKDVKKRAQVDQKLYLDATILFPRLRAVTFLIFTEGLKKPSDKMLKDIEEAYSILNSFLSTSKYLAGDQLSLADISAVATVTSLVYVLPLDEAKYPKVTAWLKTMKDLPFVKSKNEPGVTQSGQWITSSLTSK

Row | inhibition at 100 µM [1] | inhibition at 100 µM [5] | inhibition at 100 µM [6] | inhibition at 100 µM [10] | SMILES | further results
1 | 50.7% | 66.5% | 67.3% | 84.8% | CCCCCCSC[C@H](NC(=O)CC[C@H](N)C(=O)O)C(=O)NCC(=O)O [GTX, S-Hexylglutathione, reference compound] | IC50 [2]: 23.5 µM; 100 μM Inhibition rate % [2]: 86.35%; 100 μM Inhibition rate % [3]: 95.14%; IC50 [4]: 15.2 µM; 100 μM Inhibition rate % [4]: 85.61%; IC50 [7]: 16.3 µM; 100 μM Inhibition rate % [7]: 87.20%; 100 μM Inhibition rate % [8]: 95.20%; IC50 [9]: 6.87 µM; 100 μM Inhibition rate % [9]: 95.39%; IC50 [11]: 14.4 µM and 14.1 µM; 100 μM Inhibition rate % [11]: 96.30%; 100 μM Inhibition rate % [12]: 99.97%; IC50 [13]: 12.9 µM; 100 μM Inhibition rate % [13]: 73.72%
2 | -1.11% | 72.4% | 36.1% | 27.6% | O=C(CNc1ccccc1)NNC(=O)c1cc(-c2ccccc2)nn1-c1ccccc1 [PXG3, N′-(1,3-diphenyl-1H-pyrazol-5-yl-carbonyl)-2-(phenylamino) acetohydrazide] | IC50 [2]: > 100 µM; 100 μM Inhibition rate % [2]: 17.35%; IC50 [3]: > 100 µM; 100 μM Inhibition rate % [3]: 35.05%; IC50 [4]: > 100 µM; 100 μM Inhibition rate % [4]: 17.09%; IC50 [7]: > 100 µM; 100 μM Inhibition rate % [7]: 42.96%; IC50 [8]: > 100 µM; 100 μM Inhibition rate % [8]: 35.46%; IC50 [9]: > 100 µM; 100 μM Inhibition rate % [9]: 23.07%; IC50 [11]: > 100 µM; 100 μM Inhibition rate % [11]: 20.74%; IC50 [12]: > 100 µM; 100 μM Inhibition rate % [12]: 26.63%; IC50 [13]: > 100 µM; 100 μM Inhibition rate % [13]: 25.47%
3 | 8.88% | 18.4% | 43.6% | 21.6% | COc1cc(C(=O)NNC(=O)c2cc(-c3ccccc3)nn2-c2ccccc2)cc(OC)c1OC [PXG4, N′-(1,3-diphenyl-1H-pyrazol-5-yl-carbonyl)-3,4,5-trimethoxybenzohydrazine] | IC50 [2]: > 100 µM; 100 μM Inhibition rate % [2]: −7.23%; IC50 [3]: > 100 µM; 100 μM Inhibition rate % [3]: −5.99%; IC50 [4]: > 100 µM; 100 μM Inhibition rate % [4]: −17.52%; IC50 [7]: > 100 µM; 100 μM Inhibition rate % [7]: 0.00%; IC50 [8]: > 100 µM; 100 μM Inhibition rate % [8]: −7.57%; IC50 [9]: > 100 µM; 100 μM Inhibition rate % [9]: 2.34%; IC50 [11]: > 100 µM; 100 μM Inhibition rate % [11]: 4.07%; IC50 [12]: > 100 µM; 100 μM Inhibition rate % [12]: −10.90%; IC50 [13]: > 100 µM; 100 μM Inhibition rate % [13]: −10.64%
4 | 5.93% | 55.7% | 35.1% | 20.1% | O=C(NNC(=O)c1cc(-c2ccc(Cl)cc2)nn1-c1ccccc1)c1cccnc1 [PXG7, N′-[3-(4-chlorophenyl)-1-phenyl-1H-pyrazol-5-yl-carbonyl]pyridin-3-yl-carbohydrazide] | –
5 | -3.3% | 69.5% | 37.8% | 42.4% | O=C(NNC(=O)[C@@H]1COc2ccccc2O1)c1cc(-c2ccccc2)nn1-c1ccccc1 [PXG8, (2S)-N′-(1,3-diphenyl-1H-pyrazol-5-yl-carbonyl)-2,3-dihydro-1,4-benzodioxin-2-yl-carbohydrazide] | –
6 | 18.4% | 14.1% | 34.2% | 22.8% | CCC1(C)NC(=O)N(NC(=O)c2cc(-c3ccccc3)nn2-c2ccccc2)C1=O (centres unmarked) [PXG13, N-(4-ethyl-4-methyl-2,5-dioxaimidazolin-1-yl)-1,3-diphenyl-1H-pyrazol-5-yl-carboxamide] | –
7 | 15.3% | 14.9% | 52.2% | 36.4% | COc1ccc(C2(C)NC(=O)N(NC(=O)c3cc(-c4ccccc4)nn3-c3ccccc3)C2=O)cc1 (centres unmarked) [PXG14, N-[4-(4-methoxyphenyl)-4-methyl-2,5-dioxaimidazolin-1-yl]-1,3-diphenyl-1H-pyrazol-5-yl-carboxamide] | –
8 | 4.43% | 2.22% | 48.9% | 43.9% | COc1cccc(C2(C)NC(=O)N(NC(=O)c3cc(-c4ccccc4)nn3-c3ccccc3)C2=O)c1 (centres unmarked) [PXG17, N-[4-(3-methoxyphenyl)-4-methyl-2,5-dioxaimidazolin-1-yl]-1,3-diphenyl-1H-pyrazol-5-yl-carboxamide] | –
9 | -15.7% | 23% | 71.8% | 29.6% | O=C(NNC(=O)c1cc(-c2ccc(Cl)cc2)nn1-c1ccccc1)c1ccccn1 [PXG20, N′-[3-(4-chlorophenyl)-1-phenyl-1H-pyrazol-5-yl-carbonyl]pyridin-2-yl-carbohydrazide] | –
10 | -2.67% | 7.82% | 44.9% | 11.7% | CCn1c(C)nc2cc(C(=O)NNC(=O)c3cc(-c4ccccc4)nn3-c3ccccc3)ccc21 [PXG21, N′-(1-ethyl-2-methyl-1H-1,3-benzodiazol-5-yl-carbonyl)-1,3-diphenyl-1H-pyrazol-5-yl-carbohydrazide] | –
11 | 28.3% | 23.1% | 14.9% | 19.7% | CCOC(=O)NNC(=O)c1cc(-c2ccccc2)nn1-c1ccccc1 [PXG24, N′-(ethoxycarbonyl)-1,3-diphenyl-1H-pyrazol-5-yl-carbohydrazide] | –
12 | 2.07% | 23.8% | -1.47% | 15.3% | O=C(NNC(=O)c1cc(-c2ccccc2)nn1-c1ccccc1)c1cccnc1O [PXG25, N′-(1,3-diphenyl-1H-pyrazol-5-yl-carbonyl)-2-hydroxypyridin-3-yl-carbohydrazide] | –
13 | 17.6% | 41.7% | 25.1% | 42.4% | O=C(NNC(=O)c1cc(-c2ccccc2)nn1-c1ccccc1)c1ccc(=O)[nH]n1 [PXG27, N′-(1,3-diphenyl-1H-pyrazol-5-yl-carbonyl)-6-oxo-1,6-dihydropyridazin-3-yl-carbohydrazide] | –
14 | 0.96% | 70.9% | 19.5% | 23.4% | O=C(NNC(=O)C1CCCC1)c1cc(-c2ccccc2)nn1-c1ccccc1 [PXG28, N′-(1,3-diphenyl-1H-pyrazol-5-yl-carbonyl) cyclopentyl carbohydrazide] | –
